Results taken from patent US20230099031A1, “BIFUNCTIONAL AGENTS FOR PROTEIN RECRUITMENT AND/OR DEGRADATION” (Orionis Biosciences, Inc., priority 2019, published 2023).

The molecules below were run against T1, CRBN (Homo sapiens, UniProt Q96SW2) (assay: Competition Assay: MAPPIT-like, competition with trimethoprim-lenalidomide hybrid ligand for binding to CRBN in HEK293T cells). Conditions: protocol and reagents of Example 1; read-out: IC50 Competition.
T1 construct: expressed in transfected cells; host or cells: HEK293T
Assay type: cell-based
Excerpt: A bait protein (protein A) is expressed as a fusion protein in which it is genetically fused to an engineered intracellular receptor domain of the leptin receptor, which is itself fused to the extracellular domain of the erythropoietin (Epo) receptor. Binding of Epo ligand to the EpoR component results in activation of receptor-associated intracellular JAK2. However, activated JAK2 cannot activate the leptin receptor to trigger STAT3 binding and its phosphorylation because its tyrosine residues, normally phosphorylated by activated JAK2, have been mutated. Reconstitution of a JAK2 phosphorylatable STAT3 docking site is instead created through interaction of a protein B with protein A, whereby protein B is fused to a cytoplasmic domain of the gp130 receptor (which now harbors appropriate tyrosine resides recognized by the activated JAK2 kinase). Thus, physical interaction of protein A with protein B reconstitutes and Epo triggers JAK2-STAT3 signaling pathway activation. Activation of STAT3 can be monitored by introduction of a STAT3-responsive reporter gene, including a luciferase-encoding gene or a gene encoding a fluorescent marker such as GFP or some other type of fluorescent protein (EGF etc.). In this manner, the MAPPIT assay provides a versatile assay to assess such recombinant protein-protein interactions, or compound- or hybrid ligand-induced protein-protein interactions, in intact cells.
Formation of the complex results in activation of a STAT-responsive luciferase reporter gene. That signal is set to 100% luciferase activity. In a separate sample set up, cells are prepared in the same manner but, in addition, co-incubated with a test compound whose interaction with CRBN is investigated. […] Increasing concentrations of test compound are assessed to determine CRBN binding efficiency as determined in this type of ligand competition experiment in living cells. Specificity of signal inhibition is assessed by a parallel experimental set up in which test compound effect is assessed for inhibition of signal generated by a control gp130 fusion protein (CTRL) that directly binds to the DHFR-fusion protein in the absence of hybrid ligand (i.e. a direct interaction of the proteins).
In more detail, HEK293T cells are cultured in Dulbecco's modified Eagle's medium supplemented with 10% fetal calf serum, incubated at 37° C., 8% CO2. […] Data points represent the average luciferase activity of triplicate samples derived from cells treated with leptin+test compound for the REM2 control (CTRL) or cells treated with leptin+hybrid ligand+test compound (CRBN) relative to leptin (CTRL) or leptin+hybrid ligand (CRBN) only treated samples (the signals obtained in absence of added test compound for both cases is set at 100% of luciferase activity on y-axis). Error bars represent standard deviations. Curves are fit using 4-parameter nonlinear regression in […] PRISM software

Compared with `CC(=O)NCC(=O)Nc1ccc2c(c1)C(=O)N(C1CCC(=O)NC1=O)C2` (stereo not shown) [Compound C84967, 2-acetamido-N-[2-(2,6-dioxo-3-piperidyl)-3-oxo-isoindolin-5-yl]acetamide], `CN(CC1CC1)C(=O)CNc1ccc2c(c1)C(=O)N(C1CCC(=O)NC1=O)C2` (stereo not shown) [Compound C95338, N-(cyclopropylmethyl)-2-[[2-(2,6-dioxo-3-piperidyl)-3-oxo-isoindolin-5-yl]amino]-N-methyl-acetamide] is 98-fold lower in IC50: 3.15 µM for the first, 0.0321 µM for the second. The second is the more potent here.

Going from `O=C1CCC(N2Cc3ccc(N4CCNC4=O)cc3C2=O)C(=O)N1` (stereo not shown) [Compound C84971, 3-[1-oxo-6-(2-oxoimidazolidin-1-yl)isoindolin-2-yl]piperidine-2,6-dione] to `CN(C)c1ccc2c(c1)C(=O)N(C1CCC(=O)NC1=O)C2` (stereo not shown) [Compound C96622, 3-[6-(dimethylamino)-1-oxo-isoindolin-2-yl]piperidine-2,6-dione], the IC50 falls from 1.31 µM to 0.214 µM (6.1-fold).

Going from `O=C1CCC(N2Cc3ccc(NCC(=O)N4CCc5ccccc5C4)cc3C2=O)C(=O)N1` (stereo not shown) [Compound C95329] to `O=C1CCC(N2Cc3ccc(NCC(=O)N4Cc5ccccc5C4)cc3C2=O)C(=O)N1` (stereo not shown) [Compound C95330, 3-[6-[(2-isoindolin-2-yl-2-oxo-ethyl)amino]-1-oxo-isoindolin-2-yl]piperidine-2,6-dione], the IC50 falls from 10.3 µM to 0.03 µM (340-fold).

First: CN(Cc1cnn(C)c1)C(=O)CNc1ccc2c(c1)C(=O)N(C1CCC(=O)NC1=O)C2 (stereo not shown) [Compound C95333, 2-[[2-(2,6-dioxo-3-piperidyl)-3-oxo-isoindolin-5-yl]amino]-N-methyl-N-[(1-methylpyrazol-4-yl)methyl]acetamide]
Second: CC1Cc2ccccc2N1C(=O)CNc1ccc2c(c1)C(=O)N(C1CCC(=O)NC1=O)C2 (stereo not shown) [Compound C95336, 3-[6-[[2-(2-methylindolin-1-yl)-2-oxo-ethyl]amino]-1-oxo-isoindolin-2-yl]piperidine-2,6-dione]
The IC50 of the first is 20-fold lower: 0.591 µM for the first, 11.9 µM for the second.

First: C=CCC1c2ccccc2C(=O)N1C1CCC(=O)NC1=O (stereo not shown) [Compound C96413, 3-(1-allyl-3-oxo-isoindolin-2-yl)piperidine-2,6-dione]
Second: CC(C)(C)OC(=O)CC1c2ccccc2C(=O)N1C1CCC(=O)NC1=O (stereo not shown) [Compound C98053, t-butyl 2-[2-(2,6-dioxo-3-piperidyl)-3-oxo-isoindolin-1-yl]acetate]
The IC50 of the first is 1.8-fold higher: 10.4 µM for the first, 5.77 µM for the second.

`O=C1CCC(Nc2ncc3ccccc3n2)C(=O)N1` (stereo not shown) [Compound C97402, 3-(quinazolin-2-ylamino)piperidine-2,6-dione] and `O=C1CC=CC(C(=O)NC2CCC(=O)NC2=O)=N1` (stereo not shown) [Compound C98696, N-(2,6-dioxo-3-piperidyl)-2-oxo-3H-pyridine-6-carboxamide] are within 1.5-fold of each other in IC50: 6.32 µM for the first, 9.34 µM for the second.

Work on `O=C1CCC(N2Cc3cccc([N+](=O)[O-])c3C2=O)C(=O)N1` (stereo not shown) [Compound C99884, 3-(7-nitro-1-oxo-isoindolin-2-yl)piperidine-2,6-dione] yielded an IC50 of 1.37 µM.
